Numbering of substitutions follows the chain as printed. Read-outs that look alike come from different tables or passages of the source.
Assays:
Ba/F3-KIF5B-RET cells = assay: In vivo efficacy study, subcutaneous Ba/F3-KIF5B-RET tumor in nude mice; design: species or system BALB/c nude mice; conditions: 10 mg/kg P.O. BID x 3 weeks
Protocol: Cell culture: Ba/F3-KIF5B-RET cell line was cultured with 1640 medium (Biological Industries)+10%/f fetal bovine serum (BI)+1% double antibody (Penicillin Streptomycin solution, Corning, USA) at 37° C. with 5% CO2. Two passages were performed for one week. When the cell saturation was 80%-90% and the number reached the required level, the cells were collected, counted and inoculated.
Animals: BALB/c nude mice, female, 6-8 weeks of age, weighing 18-22 g. A total of 18 mice were required, provided by Beijing Vital River Laboratory Animal Technology Co., Ltd.
Tumor inoculation: 0.2 ml (2×106) Ba/F3-KIF5B-RET cells (plus stromal gel, volume ratio 1:1) were inoculated subcutaneously on the right posterior dorsum of each mouse, and group dosing was started when the average tumor volume reached about 150-200 mm^3.
Experimental index: Tumor volume and body weight were measured twice a week. Tumor volume was measured by vernier calipers with the formula TV=0.5 a×b2, where a is the long diameter of the tumor and b is the short diameter of the tumor.

Ba/F3-KIF5B-RET-V804L = molecular target: T1, Ba/F3-KIF5B-RET-V804L (Homo sapiens, UniProt P07949, V804L); assay: Cell anti-proliferation (CellTiter-Glo), Ba/F3-KIF5B-RET-V804L cells; assay type: cell-based; conditions: cell viability, 72 h incubation
T1 construct: KIF5B (fusion partner, N-terminal part of kinesin-1 heavy chain, P33176); host or cells: Ba/F3 (murine pro-B cells); the other entry of the earlier key: KIF5B (P33176, Kinesin-1 heavy chain)
T1 sequence (P07949 713-1063 V804L limits assumed): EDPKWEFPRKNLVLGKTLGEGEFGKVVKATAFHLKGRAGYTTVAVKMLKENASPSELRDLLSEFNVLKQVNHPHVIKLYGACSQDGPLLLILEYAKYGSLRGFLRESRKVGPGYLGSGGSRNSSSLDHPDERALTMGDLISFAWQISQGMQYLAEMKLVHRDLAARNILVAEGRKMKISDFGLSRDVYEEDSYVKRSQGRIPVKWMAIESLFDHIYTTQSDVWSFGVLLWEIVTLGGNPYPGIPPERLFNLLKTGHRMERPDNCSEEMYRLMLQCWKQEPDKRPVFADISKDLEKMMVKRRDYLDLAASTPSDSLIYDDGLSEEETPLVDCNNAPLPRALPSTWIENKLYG
Protocol: (§1) Ba/F3-KIF5B-RET, Ba/F3-KIF5B-RET-V804L and Ba/F3-KIF5B-RET-V804M cells were constructed by PreceDo Pharmaceuticals Co., Ltd.
(§2) Ba/F3-KIF5B-RET, Ba/F3-KIF5B-RET-V804L and Ba/F3-KIF5B-RET-V804M medium: RPMI-1640+10% FBS+1% P/S.
(§3) A 1000×solution of the compound was prepared with DMSO, the compound was diluted to 20 times to obtain the final concentration with a growth medium, and 2 μl 1000×cpd was added to 98 μl growth medium.
(§4) Cells were centrifuged and resuspended with growth medium and cell counting was performed using a cell counter. The cell suspension was diluted with growth medium to the desired concentration. 95 uL of the diluted cell suspension was taken out to a 96-well plate. 5 μL of 20×compound solution was added to the 96-well plate to a final DMSO concentration of 0.1% per well. The 96-well plate was incubated for 72 h at 37° C. with 5% CO2.
(§5) The 96-well plate was equilibrated to room temperature before the assay, 50 μl of CellTiter-Glo® Reagent was added to each well, the cells were fully lysed by shaking for 2 minutes on a shaker, incubated for 10 minutes at room temperature, and Paradigm was used to detect and record the […] readings.
(§6) Cell viability was analyzed using Graphpad 7.0 software according to the formula Cell viability (CV %)=(RLU compound−RLU blank)/(RLU control−RLU blank)*100%, and the corresponding IC50 data were calculated, in Table 1, the following names are used: <10.00 nM=A; 10.01-50.0 nM=B; >50 nM=C.

Ba/F3-KIF5B-RET = molecular target: T2, Ba/F3-KIF5B-RET (Homo sapiens, UniProt P07949); assay: Cell anti-proliferation (CellTiter-Glo), Ba/F3-KIF5B-RET cells; assay type: cell-based; conditions: cell viability, 72 h incubation, CellTiter-Glo
T2 construct: KIF5B (fusion partner, N-terminal part of kinesin-1 heavy chain, P33176); host or cells: Ba/F3 (murine pro-B cells); the other entry of the earlier key: KIF5B (P33176, Kinesin-1 heavy chain)
T2 sequence (P07949 713-1063 limits assumed): T1 sequence (P07949 713-1063 V804L limits assumed) with L92V
Protocol: as §1, §2, §3, §4, §5, §6

Ba/F3-KIF5B-RET-V804M = molecular target: T3, Ba/F3-KIF5B-RET-V804M (Homo sapiens, UniProt P07949, V804M); assay: Cell anti-proliferation (CellTiter-Glo), Ba/F3-KIF5B-RET-V804M cells; assay type: cell-based; conditions: cell viability, 72 h incubation
T3 construct: KIF5B (fusion partner, N-terminal part of kinesin-1 heavy chain, P33176); host or cells: Ba/F3 (murine pro-B cells); the other entry of the earlier key: KIF5B (P33176, Kinesin-1 heavy chain)
T3 sequence (P07949 713-1063 V804M limits assumed): T1 sequence (P07949 713-1063 V804L limits assumed) with L92M
Protocol: as §1, §2, §3, §4, §5, §6

RET = conditions: cited from earlier work

CO[C@]1(C(=O)N[C@@H](C)c2ccc(-n3cc(F)cn3)nc2)CC[C@H](c2nc(Nc3cc(C)[nH]n3)c3ccn(C)c3n2)CC1 [Control Example 1, reference compound]
Tumor Volume(mm^3) 0 day (Ba/F3-KIF5B-RET cells; 0 day): 169.95 mm^3
Tumor Volume(mm^3) 2 days (Ba/F3-KIF5B-RET cells; 2 days): 157.73 mm^3
Tumor Volume(mm^3) 5 days (Ba/F3-KIF5B-RET cells; 5 days): 144.57 mm^3
Tumor Volume(mm^3) 9 days (Ba/F3-KIF5B-RET cells; 9 days): 185.92 mm^3
Tumor Volume(mm^3) 12 days (Ba/F3-KIF5B-RET cells; 12 days): 204.18 mm^3
Tumor Volume(mm^3) 16 days (Ba/F3-KIF5B-RET cells; 16 days): 272.83 mm^3
Tumor Volume(mm^3) 19 days (Ba/F3-KIF5B-RET cells; 19 days): 277.52 mm^3
Tumor Volume(mm^3) 22 days (Ba/F3-KIF5B-RET cells; 22 days): 292.41 mm^3
IC50 (Ba/F3-KIF5B-RET-V804L): < 10 nM
IC50 (Ba/F3-KIF5B-RET): < 10 nM
IC50 (Ba/F3-KIF5B-RET-V804M): < 10 nM

CO[C@]1(C(=O)N[C@@H](C)c2ccc(-n3cc(F)cn3)nc2)CC[C@H](c2nc(C)cc(Nc3cc(C)[nH]n3)n2)CC1 [BLU-667]
overall remission rate (ORR) (RET; patients with medullary thyroid carcinoma): 40%
overall remission rate (ORR) (RET; patients with non-small cell lung cancer): 50%
overall remission rate (ORR) (RET; tumor patients with RET fusion and mutation): 45%
